Calls of active or inactive are those of the source. No rule for the calls is given here.
Target: Ubiquitin-conjugating enzyme E2 N (Homo sapiens) (UniProt P61088)
Assay: NMR detection of UBE2N ligand binding – biophysical, purified protein (AID 1552)
Settings: NMR binding to purified UBE2N

Chain of Ubiquitin-conjugating enzyme E2 N (Homo sapiens) (P61088 whole entry, looked up): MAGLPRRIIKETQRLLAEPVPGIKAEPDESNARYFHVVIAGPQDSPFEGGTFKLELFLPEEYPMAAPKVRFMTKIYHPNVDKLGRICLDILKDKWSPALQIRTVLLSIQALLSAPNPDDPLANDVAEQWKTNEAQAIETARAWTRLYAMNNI

Row | Compound | Kd
1 | CC(C)(C(N)=O)/[N+]([O-])=C\c1ccccc1 | > 4 mM (inactive)
2 | CC(=O)NCS(=O)(=O)c1ccc(C)cc1 | > 4 mM (inactive)
3 | Cc1cc(NC(=O)c2ocnc2C)no1 | > 4 mM (inactive)
4 | Fc1cccc(Cl)c1CN1CCCNCC1 | > 4 mM (inactive)
5 | CN1CCC(N(C)C2CCN(C)CC2)CC1 | > 4 mM (inactive)
6 | O=C(O)C1CN2CCC1CC2 (stereo unspecified) | > 4 mM (inactive)
7 | CC(=O)Nc1cccs1 | > 4 mM (inactive)
8 | CC(O)C(=O)N/N=C/c1ccccc1 (stereo unspecified) | > 4 mM (inactive)
9 | CC1(C)CC2C1CCC1(C)OC2(C)CCC1O (stereo unspecified) | > 4 mM (inactive)
10 | COc1cccc(/C=C/C(=O)O)c1C(C)C | > 4 mM (inactive)
11 | COC(=O)C[C@@H]1C2(C)C(=O)[C@@H](CC3=C4CC(O)O[C@@H](c5ccoc5)[C@]4(C)CCC32)[C@H](O)C1(C)C (stereo partly specified) | > 4 mM (inactive)
12 | COc1ccc2c(c1)OC1(O)COc3cc(OC)c(OC)cc3C1=C2 (stereo unspecified) | > 4 mM (inactive)
13 | C=C[C@@](C)(O)CCC1C(=C)CCC2[C@@](C)(CO)CCC[C@]12C (stereo partly specified) | > 4 mM (inactive)
14 | CC(CC(=O)O)n1cccn1 (stereo unspecified) | > 4 mM (inactive)
15 | Cn1cnc2c(=O)[nH]cc([N+](=O)[O-])c21 | > 4 mM (inactive)
16 | COc1cc(O)ccc1C(C)=O | > 4 mM (inactive)
17 | Cc1nc(N)sc1C(=O)Nc1nccs1 | > 4 mM (inactive)
18 | C[C@@H]1OC(O[C@H]2C(O[C@H]3CC[C@@]4(C)C(CC[C@]5(C)C4CC=C4C6CC(C)(C)CC[C@]6(C(=O)O)CC[C@]45C)[C@]3(C)CO)OC[C@H](O)[C@@H]2O)[C@H](O)[C@H](O)[C@H]1O (stereo partly specified) | > 4 mM (inactive)
19 | NC1=NC(=O)/C(=C\c2cccc(C(=O)O)c2)S1 | > 4 mM (inactive)
20 | O=C(O)C1Cc2ccccc2O1 (stereo unspecified) | > 4 mM (inactive)
21 | Cc1ccc(-c2c(C)n([O-])c(C)c(C)[n+]2=O)cc1 | > 4 mM (inactive)
22 | O=C(O)/C=C/C=C/c1ccccc1 | > 4 mM (inactive)
23 | Cc1cc(C)n(S(=O)(=O)c2cc(C)c(C)cc2C)n1 | > 4 mM (inactive)
24 | Cc1cc(O)cc(=O)o1 | > 4 mM (inactive)

Row | Compound | Kd
25 | O=C(Nc1cccnc1)c1cnn2cccnc12 | > 4 mM (inactive)
26 | O=C(O)c1cccnc1N1CCCC1 | > 4 mM (inactive)
27 | CCOC(=O)c1ccc(F)cc1F | > 4 mM (inactive)
28 | COc1cc2c(cc1O)CC1c3c(cc(O)c(OC)c3-2)CCN1C (stereo unspecified) | > 4 mM (inactive)
29 | Cc1cc(C)c2nncn2n1 | > 4 mM (inactive)
30 | O=C1CNC(=O)N1Cc1ccc(Br)cc1 | > 4 mM (inactive)
31 | Cc1csc(NC(=O)c2ccoc2C)n1 | > 4 mM (inactive)
32 | Cc1cc(C)n(S(=O)(=O)c2ccc(C)c(C)c2C)n1 | > 4 mM (inactive)
33 | Cc1ccc(OCC(=O)n2cnnc2N)c(C)c1 | > 4 mM (inactive)
34 | O=C(Nc1ccccc1)Nc1ccccn1 | > 4 mM (inactive)
35 | NC(=O)CSc1nnc2ccc(-c3ccco3)nn12 | > 4 mM (inactive)
36 | CCC(=O)Nc1ccccc1NC(C)=O | > 4 mM (inactive)
37 | O=C1CSC(=O)N1CNc1ccccc1 | > 4 mM (inactive)
38 | Cc1ccc(NC(=O)C2CCCNC2=O)nc1 (stereo unspecified) | > 4 mM (inactive)
39 | O=C(Nn1cnnc1)c1ccccc1Cl | > 4 mM (inactive)
40 | NC(=O)C(=O)NCc1ccc(Cl)cc1 | > 4 mM (inactive)
41 | O=C(NC1CC1)c1ccccc1[N+](=O)[O-] | > 4 mM (inactive)
42 | Cn1c(=O)[nH]c2nc[nH]c2c1=O | > 4 mM (inactive)
43 | Cc1cccc(CSc2nncc(=O)[nH]2)c1 | > 4 mM (inactive)
44 | CC(=O)c1ccc(NC(=O)c2ocnc2C)cc1 | > 4 mM (inactive)
45 | COc1ccc(-c2ccc(SCC(N)=O)nn2)cc1 | > 4 mM (inactive)
46 | OC1CCCN(Cc2ccccc2)C1 (stereo unspecified) | > 4 mM (inactive)
47 | O=c1c2ccccc2ncn1C1CCCCC1 | > 4 mM (inactive)
48 | CC(=O)Nc1ccc(-c2ccc3nncn3n2)cc1 | > 4 mM (inactive)

Row | Compound | Kd
49 | CN(C)C(=O)c1ccccc1-c1ccccc1 | > 4 mM (inactive)
50 | O=C(O)c1cc(=O)c2cccc(O)c2[nH]1 | > 4 mM (inactive)
51 | NC(=O)c1cccc2c1OCCO2 | > 4 mM (inactive)
52 | O=S(=O)(Cc1ccccc1Cl)Nc1ccccn1 | > 4 mM (inactive)
53 | CN(C)CC(O)C1CCOC(C)(C)C1 (stereo unspecified) | > 4 mM (inactive)
54 | COc1ncnc(N)c1[N+](=O)[O-] | > 4 mM (inactive)
55 | CC1=CCCC2C1(C)CCC(C)C2(C)CC/C(C)=C/C[n+]1cn(C)c2c(N)ncnc21 (stereo unspecified) | > 4 mM (inactive)
56 | COC1C=CC23c4cc5c(cc4CN(CC2O)[C@@H]3C1)OCO5 (stereo partly specified) | > 4 mM (inactive)
57 | COC(=O)c1c(C)c2c(c(C)c1O)OC(=O)c1c(C)c(Cl)c(O)c(Cl)c1O2 | > 4 mM (inactive)
58 | CCNC(=S)N1CCC(C(N)=O)CC1 | > 4 mM (inactive)
59 | CS(=O)(=O)N1CCN(C(=O)c2ccccc2)CC1 | > 4 mM (inactive)
60 | CSc1ccc(S(=O)(=O)N2CCCC2)cc1 | > 4 mM (inactive)
61 | COC(=O)c1cncn1C | > 4 mM (inactive)
62 | COc1ccccc1NC(=O)C1CCC(=O)N1 (stereo unspecified) | > 4 mM (inactive)
63 | O=S1(=O)CCC(NC(=S)Nc2ccccn2)C1 (stereo unspecified) | > 4 mM (inactive)
64 | NC(=O)c1ccccc1NC(=O)c1cccnc1 | > 4 mM (inactive)
65 | O=C1CSC(=Nc2ccccc2[N+](=O)[O-])N1 | > 4 mM (inactive)
66 | CN(C)C(=O)c1ccc(-c2n[nH]c(=O)c3ccccc23)cc1 | > 4 mM (inactive)
67 | O=C(O)c1cccnc1 | > 4 mM (inactive)
68 | CCN1CCC2(CC1)CC1CC3C=CC1(CN2C(C)=O)O3 (stereo unspecified) | > 4 mM (inactive)
69 | O=C(O)C1=C[C@@H](O)[C@@H](O)[C@H](O)C1 | > 4 mM (inactive)
70 | O=C(Nc1ccon1)c1cccc(Cl)c1 | > 4 mM (inactive)
71 | CO[C@H]1[C@@H](O)[C@@H](C)O[C@H](O[C@H]2CCC3(C)C4CCC5(C)[C@@H](C6=CC(=O)OC6)CC[C@]5(O)[C@@H]4CC[C@]3(O)C2)[C@@H]1O (stereo partly specified) | > 4 mM (inactive)
72 | O=c1c2ccccc2nc2n1CCS2 | > 4 mM (inactive)

Row | Compound | Kd
73 | CC(=O)Oc1ccc(O)cc1 | > 4 mM (inactive)
74 | OCC1=Cc2ccccc2OC1 | > 4 mM (inactive)
75 | OCCCc1nc2ccccc2[nH]1 | > 4 mM (inactive)
76 | CC(=O)Nc1cnn(-c2ccccc2)c(=O)c1Cl | > 4 mM (inactive)
77 | Cc1noc(C)c1C(=O)N1CCC(Cc2ccccc2)CC1 | > 4 mM (inactive)
78 | Cc1nnc(SCC(=O)N2CCCCC2)s1 | > 4 mM (inactive)
79 | O=C(c1ccc(F)cc1)N1CCN(c2ncccn2)CC1 | > 4 mM (inactive)
80 | NC1CS(=O)(=O)CC1O (stereo unspecified) | > 4 mM (inactive)
81 | Nc1ccc(S(=O)(=O)N2CCCCC2)cc1 | > 4 mM (inactive)
82 | COc1ccc(/C=C2/N=C(N)SC2=O)cc1 | > 4 mM (inactive)
83 | O=C1C2=C(SCCS2)C(=O)N1CCCO | > 4 mM (inactive)
84 | C[n+]1cc2c3c(ccc2c2ccc4cc5c(cc4c21)OCO5)OCO3 | > 4 mM (inactive)
85 | Cc1cccc(NS(=O)(=O)c2cccs2)n1 | > 4 mM (inactive)
86 | O=C(Nc1cccnc1)N1CCOCC1 | > 4 mM (inactive)
87 | COC(CC(=O)O)c1nc2ccccc2s1 (stereo unspecified) | > 4 mM (inactive)
88 | CN1CCN(C(=O)c2cc(-c3ccccc3)on2)CC1 | > 4 mM (inactive)
89 | O=C1C2C3CCC(O3)C2C(=O)N1c1ccccc1 (stereo unspecified) | > 4 mM (inactive)
90 | C/C=C(\C)C(=O)O[C@@H]1c2c(ccc3ccc(=O)oc23)OC(C)(C)[C@@H]1OC(C)=O | > 4 mM (inactive)
91 | CN(C)CCNC(CC(=O)Nc1ccccc1)C(=O)O (stereo unspecified) | > 4 mM (inactive)
92 | C[n+]1ccc(C(=O)[O-])cc1 | > 4 mM (inactive)
93 | NCc1ccc(-c2cccs2)s1 | > 4 mM (inactive)
94 | Cc1cc(C)c2ccc[n+]([O-])c2c1O | > 4 mM (inactive)
95 | CCOC(=O)c1sc(SC)c2c1CCCC2O (stereo unspecified) | > 4 mM (inactive)
96 | CC1=CC2C(CC1=O)C(C)=CCC2C(C)C (stereo unspecified) | > 4 mM (inactive)

Row | Compound | Kd
97 | O=C(O)CC1C(=O)NCCN1Cc1ccccc1 (stereo unspecified) | > 4 mM (inactive)
98 | Cc1nc2c(n1O)CCc1c-2no[n+]1[O-] | > 4 mM (inactive)
99 | NC(=O)COc1cccc2cccnc12 | > 4 mM (inactive)
100 | CC1(C)Oc2ccc(N)cc2O1 | > 4 mM (inactive)
101 | NC(CCC(=O)Nc1ccc([N+](=O)[O-])cc1)C(=O)O (stereo unspecified) | > 4 mM (inactive)
102 | O=C(Nc1ccccc1)N1CCOCC1 | > 4 mM (inactive)
103 | CC(=O)c1cnc2nc(C(F)(F)F)nn2c1C | > 4 mM (inactive)
104 | Cn1nc(C(=O)NCc2cccnc2)c2ccccc2c1=O | > 4 mM (inactive)
105 | Nc1ccc(F)cc1F | > 4 mM (inactive)
106 | CCOC(=O)c1c(C)cc(O)cc1O | > 4 mM (inactive)
107 | CN1CCN(C(=O)Nc2cccc3ccccc23)CC1 | > 4 mM (inactive)
108 | CN=C(C)c1c(O)n(C)c(=S)n(C)c1=O | > 4 mM (inactive)
109 | COc1ncccc1N | > 4 mM (inactive)
110 | COc1ccc(S(=O)(=O)N2CCC(C(N)=O)CC2)cc1 | > 4 mM (inactive)
111 | CC(CCC(=O)O)[C@H]1CCC2C3C(C[C@H](O)[C@@]21C)[C@@]1(C)CC[C@@H](O)C[C@H]1C[C@H]3O (stereo partly specified) | > 4 mM (inactive)
112 | COC(=O)c1[nH]c2ccccc2c1C(=O)OC | > 4 mM (inactive)
113 | CC(=O)OC[C@H]1O[C@@H](Oc2cc(OC(C)=O)c3c(=O)cc(-c4ccc(OC(C)=O)cc4)oc3c2)[C@H](OC(C)=O)[C@@H](OC(C)=O)[C@@H]1OC(C)=O | > 4 mM (inactive)
114 | CC(=O)c1sc2nc(N)nn2c1C | > 4 mM (inactive)
115 | C/C=C(/C)C(=O)O[C@@H]1[C@H](OC(C)=O)[C@@]2(CO)C(CC1(C)C)C1=CCC3[C@@]4(C)CC[C@H](O[C@@H]5O[C@H](C(=O)O)[C@@H](O[C@@H]6O[C@H](CO)[C@@H](O)[C@H](O)[C@H]6O)[C@H](O)[C@H]5O[C@@H]5O[C@H](CO)[C@@H](O)[C@H](O)[C@H]5O)[C@](C)(CO)C4CC[C@@]3(C)[C@]1(C)C[C@H]2O (stereo partly specified) | > 4 mM (inactive)
116 | Clc1ccccc1OCc1nc(-c2ccncc2)no1 | > 4 mM (inactive)
